Measurements from PubChem BioAssay (NCI).
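Five compound concentrations were applied to cells in 96-well plates for 48 hours; endpoints were derived by simple linear interpolation of the resulting dose-response curve. Here, GI50 denotes the concentration required for 50% inhibition of growth. TGI: total growth inhibition.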

Tests used:
Experiment in all cases: growth of human tumour cells (NCI), 48 h
[1] = system: 786-0 renal
[2] = system: A498 renal
[3] = system: A549 NSCLC
[4] = system: ACHN renal
[5] = system: BT-549 breast
[6] = system: CAKI-1 renal
[7] = system: CCRF-CEM leukemia
[8] = system: COLO 205 colon
[9] = system: DU-145 prostate
[10] = system: EKVX NSCLC
[11] = system: HCC-2998 colon
[12] = system: HCT-116 colon
[13] = system: HCT-15 colon
[14] = system: HL-60(TB) leukemia
[15] = system: HOP-62 NSCLC
[16] = system: HS 578T breast
[17] = system: HT29 colon
[18] = system: IGROV1 ovarian
[19] = system: K-562 leukemia
[20] = system: KM12 colon
[21] = system: LOX IMVI melanoma
[22] = system: M14 melanoma
[23] = system: MALME-3M melanoma
[24] = system: MCF7 breast
[25] = system: MDA-MB-231 breast
[26] = system: MDA-MB-435
[27] = system: MOLT-4 leukemia
[28] = system: NCI-H226 lung
[29] = system: NCI-H23 lung
[30] = system: NCI-H460 lung
[31] = system: NCI-H522 lung
[32] = system: NCI/ADR-RES ovarian
[33] = system: OVCAR-3 ovarian
[34] = system: OVCAR-4 ovarian
[35] = system: OVCAR-5 ovarian
[36] = system: OVCAR-8 ovarian
[37] = system: PC-3 prostate
[38] = system: RPMI-8226 leukemia
[39] = system: RXF 393 renal
[40] = system: SF-268 CNS
[41] = system: SF-295 CNS
[42] = system: SF-539 CNS
[43] = system: SK-MEL-2 melanoma
[44] = system: SK-MEL-28 melanoma
[45] = system: SK-MEL-5 melanoma
[46] = system: SK-OV-3 ovarian
[47] = system: SN12C renal
[48] = system: SNB-19 CNS
[49] = system: SNB-75 CNS
[50] = system: SR leukemia
[51] = system: SW-620 colon
[52] = system: T-47D breast
[53] = system: TK-10 renal
[54] = system: U251 CNS
[55] = system: UACC-257 melanoma
[56] = system: UACC-62 melanoma
[57] = system: UO-31 renal

Nc1nonc1-c1nc2cnccc2n1C1CCCCC1 was tested, and the GI50 [1] was 11.1 µM, the TGI [1] was > 25 µM and the GI50 [2] was 5.09 µM. For the same compound, the TGI [2] was > 25 µM, the GI50 [3] was 13 µM and the TGI [3] was > 25 µM. For the same compound, the GI50 [4] was 12 µM, the TGI [4] was > 25 µM and the GI50 [5] was 6.29 µM. For the same compound, the TGI [5] was > 25 µM, the GI50 [6] was 11.6 µM and the TGI [6] was > 25 µM. The GI50 [7] was 7.84 µM, the TGI [7] was > 25 µM and the GI50 [8] was 6.9 µM. The TGI [8] was > 25 µM, the GI50 [9] was 20.5 µM and the TGI [9] was > 25 µM. For the same compound, the GI50 [10] was > 20.3 µM, the TGI [10] was > 25 µM and the GI50 [11] was > 25 µM. For the same compound, the TGI [11] was > 25 µM, the GI50 [12] was 7.45 µM and the TGI [12] was > 25 µM. The GI50 [13] was 13.4 µM, the TGI [13] was > 25 µM and the GI50 [14] was 7.25 µM. For the same compound, the TGI [14] was 19.6 µM, the GI50 [15] was > 25 µM and the TGI [15] was > 25 µM. The GI50 [16] was 13.9 µM, the TGI [16] was > 25 µM and the GI50 [17] was 9.87 µM. For the same compound, the TGI [17] was > 25 µM, the GI50 [18] was > 23.1 µM and the TGI [18] was > 25 µM. For the same compound, the GI50 [19] was 11 µM, the TGI [19] was > 25 µM and the GI50 [20] was 9.16 µM. The TGI [20] was > 25 µM, the GI50 [21] was 16.3 µM and the TGI [21] was > 25 µM. For the same compound, the GI50 [22] was 24 µM, the TGI [22] was > 25 µM and the GI50 [23] was > 25 µM. For the same compound, the TGI [23] was > 25 µM, the GI50 [24] was 9.44 µM and the TGI [24] was > 25 µM. For the same compound, the GI50 [25] was > 25 µM, the TGI [25] was > 25 µM and the GI50 [26] was 22.5 µM. For the same compound, the TGI [26] was > 25 µM, the GI50 [27] was 12 µM and the TGI [27] was > 25 µM. For the same compound, the GI50 [28] was 12.9 µM, the TGI [28] was > 25 µM and the GI50 [29] was > 18.5 µM. For the same compound, the TGI [29] was > 25 µM, the GI50 [30] was 10.3 µM and the TGI [30] was > 25 µM. The GI50 [31] was 6.01 µM, the TGI [31] was 23.4 µM and the GI50 [32] was > 22.1 µM. The TGI [32] was > 25 µM, the GI50 [33] was 10.7 µM and the TGI [33] was > 25 µM. For the same compound, the GI50 [34] was > 16.6 µM, the TGI [34] was > 25 µM and the GI50 [35] was > 25 µM. For the same compound, the TGI [35] was > 25 µM, the GI50 [36] was 12.8 µM and the TGI [36] was > 25 µM. For the same compound, the GI50 [37] was > 19.9 µM, the TGI [37] was > 25 µM and the GI50 [38] was 16.1 µM. The TGI [38] was > 25 µM, the GI50 [39] was 4.8 µM and the TGI [39] was > 25 µM. For the same compound, the GI50 [40] was > 25 µM, the TGI [40] was > 25 µM and the GI50 [41] was 9.48 µM. For the same compound, the TGI [41] was > 25 µM, the GI50 [42] was 3.7 µM and the TGI [42] was > 25 µM. For the same compound, the GI50 [43] was 12 µM, the TGI [43] was > 25 µM and the GI50 [44] was > 25 µM. The TGI [44] was > 25 µM, the GI50 [45] was 6.04 µM and the TGI [45] was > 19.2 µM. The GI50 [46] was 18.8 µM, the TGI [46] was > 25 µM and the GI50 [47] was 12.5 µM. For the same compound, the TGI [47] was > 25 µM, the GI50 [48] was > 25 µM and the TGI [48] was > 25 µM. The GI50 [49] was 2.42 µM, the TGI [49] was > 25 µM and the GI50 [50] was 7.35 µM. For the same compound, the TGI [50] was > 25 µM, the GI50 [51] was 14 µM and the TGI [51] was > 25 µM. The GI50 [52] was 13.3 µM, the TGI [52] was > 25 µM and the GI50 [53] was 3.44 µM. For the same compound, the TGI [53] was > 25 µM, the GI50 [54] was 16.5 µM and the TGI [54] was > 25 µM. The GI50 [55] was > 25 µM, the TGI [55] was > 25 µM and the GI50 [56] was 14.3 µM. For the same compound, the TGI [56] was > 25 µM, the GI50 [57] was > 24 µM and the TGI [57] was > 25 µM.
For COC(=O)C1=C(OC(=O)/C(=C/c2ccccc2)c2ccccc2)C(C(=O)OC)[C@@]2(O)[C@@H](C(=O)OC)[C@H](C)C[C@@H]1[C@@H]2C(=O)OC (stereo not given in full), the TGI [1] was > 100 µM, the TGI [2] was > 100 µM and the TGI [3] was > 100 µM. The TGI [4] was > 100 µM, the TGI [5] was > 100 µM and the TGI [6] was > 100 µM. For the same compound, the TGI [7] was > 100 µM, the TGI [8] was > 100 µM and the TGI [9] was > 100 µM. The TGI [10] was > 100 µM, the TGI [11] was > 100 µM and the TGI [12] was > 100 µM. For the same compound, the TGI [13] was > 100 µM, the TGI [14] was > 100 µM and the TGI [15] was > 100 µM. The TGI [16] was > 100 µM, the TGI [17] was > 100 µM and the TGI [18] was > 100 µM. For the same compound, the TGI [19] was > 100 µM, the TGI [20] was > 100 µM and the TGI [21] was > 100 µM. For the same compound, the TGI [22] was > 100 µM, the TGI [23] was > 100 µM and the TGI [24] was > 100 µM. For the same compound, the TGI [25] was > 100 µM, the TGI [26] was > 100 µM and the TGI [28] was > 100 µM. For the same compound, the TGI [29] was > 100 µM, the TGI [30] was > 100 µM and the TGI [31] was > 100 µM. The TGI [32] was > 100 µM, the TGI [33] was > 100 µM and the TGI [34] was > 100 µM. The TGI [35] was > 100 µM, the TGI [36] was > 100 µM and the TGI [37] was > 100 µM. The TGI [38] was > 100 µM, the TGI [39] was > 100 µM and the TGI [40] was > 100 µM. For the same compound, the TGI [41] was > 100 µM, the TGI [42] was > 100 µM and the TGI [43] was > 100 µM. The TGI [44] was > 100 µM, the TGI [45] was > 100 µM and the TGI [46] was > 100 µM. For the same compound, the TGI [47] was > 100 µM, the TGI [48] was > 100 µM and the TGI [49] was > 100 µM. The TGI [50] was > 100 µM, the TGI [51] was > 100 µM and the TGI [52] was > 100 µM. The TGI [53] was > 100 µM, the TGI [54] was > 100 µM and the TGI [55] was > 100 µM. The TGI [56] was > 100 µM and the TGI [57] was > 100 µM.
